Test systems include SK-OV-3 ovarian; SN12C renal; MOLT-4 leukemia; SNB-75 CNS; SF-295 CNS; HCT-116 colon; NCI-H226 lung; A498 renal; HS 578T breast; NCI/ADR-RES ovarian.
Holding throughout (assay): NCI-60 cell line screen, 48 h

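Five compound concentrations were applied to cells in 96-well plates for 48 hours; endpoints were derived by simple linear interpolation of the resulting dose-response curve. At the GI50, growth is halved. TGI: total growth inhibition.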

These results are taken from PubChem BioAssay (NCI).

As for `O=C(Nc1cc(Cl)ccc1Cl)c1cc2ccccc2oc1=O`, the TGI was greater than 100 µM in the test with SK-OV-3 ovarian; greater than 100 µM in the test with SN12C renal; greater than 100 µM in the test with MOLT-4 leukemia; 62.9 µM with SNB-75 CNS; greater than 100 µM in the test with SF-295 CNS; greater than 100 µM in the test with HCT-116 colon.

For `CCc1cccc(CC)c1NC1=CC(=O)C(=O)c2ccccc21`, the TGI in the test on SK-OV-3 ovarian was 89.5 µM; in the test with NCI-H226 lung, 88.5 µM; with SN12C renal, 76.5 µM; in the test on MOLT-4 leukemia it was greater than 100 µM; in the test with SNB-75 CNS, 49.3 µM; in the test on SF-295 CNS, 28.3 µM. In addition, the TGI in the test on A498 renal worked out at 39.5 µM; in the test with HCT-116 colon it was 34.8 µM.

In the case of `CCCCCCCCCCCCCCCCCCCCCCC(=O)N[C@H]1CCc2cc(OC)c(OC)c(OC)c2-c2ccc(SC)c(=O)cc21`, the TGI is 53.6 µM in the test with SK-OV-3 ovarian; 8.23 µM in the test with NCI-H226 lung; greater than 100 µM in the test on SN12C renal; greater than 100 µM with MOLT-4 leukemia; 58.2 µM in the test on SNB-75 CNS; greater than 100 µM in the test with SF-295 CNS. The TGI with A498 renal amounted to 40.7 µM; in the test on HCT-116 colon it was 69.3 µM.

Take `C=CC(C)(C)[C@@]12CC3C(=O)N[C@@H](Cc4ccccc4)C(=O)N3[C@@H]1N(C(C)=O)c1ccccc12` (some centres not stated): the TGI is greater than 100 µM with SK-OV-3 ovarian; greater than 100 µM with NCI-H226 lung; greater than 100 µM with SN12C renal; 71.7 µM with MOLT-4 leukemia; greater than 100 µM in the test on SNB-75 CNS; greater than 100 µM in the test on SF-295 CNS. Further, the TGI with A498 renal and with HCT-116 colon was greater than 100 µM each time.

With `CC(=O)NNc1nc(C)c(C(=O)NNC(=O)C(=O)Nc2ccc(C)cc2[N+](=O)[O-])s1`, the TGI with SK-OV-3 ovarian, in the test on NCI-H226 lung, with SN12C renal, with MOLT-4 leukemia, with SNB-75 CNS and with SF-295 CNS was greater than 100 µM throughout. For the same molecule, the TGI with A498 renal and with HCT-116 colon was greater than 100 µM each time.

For `CC(=O)Nc1ccc(/C=C/C(=O)c2sc(-n3nc(-c4ccccc4)cc3-c3ccccc3)nc2C)cc1`, the GI50 with NCI-H226 lung, in the test on SN12C renal, with MOLT-4 leukemia, with SNB-75 CNS, with SF-295 CNS and in the test on A498 renal was greater than 100 µM each time. Besides, the GI50 with HCT-116 colon is greater than 100 µM. In addition, the TGI with NCI-H226 lung, with SN12C renal, with MOLT-4 leukemia, in the test with SNB-75 CNS, with SF-295 CNS and in the test with A498 renal was greater than 100 µM each time. Also, the TGI in the test on HCT-116 colon is greater than 100 µM.

Turning to `O=C(/C=C/c1c[nH]c2ccccc12)c1ccccc1O`, the TGI with SK-OV-3 ovarian was 33 µM; in the test with HS 578T breast, 66.7 µM; in the test with NCI-H226 lung, 42.8 µM; with SN12C renal, 28.8 µM; with MOLT-4 leukemia it was 37 µM; with SNB-75 CNS, 27.2 µM. Further, the results for the TGI in the test on SF-295 CNS, in the test on A498 renal and with HCT-116 colon were 22.3 µM, 28.5 µM and 26 µM, respectively.

`N#Cc1cccc(C2SCc3nc4ccccc4n32)c1` (configuration not stated): the TGI in the test on SK-OV-3 ovarian was greater than 100 µM; with NCI-H226 lung, 96.8 µM; in the test with SN12C renal it was greater than 100 µM; with MOLT-4 leukemia it was greater than 100 µM; with SF-295 CNS, greater than 100 µM; with A498 renal, greater than 100 µM.

Take `O=C(CC1(O)C(=O)Nc2ccc(Br)cc21)c1cccc([N+](=O)[O-])c1` (configuration not stated): the TGI was greater than 100 µM with SK-OV-3 ovarian; 82.5 µM in the test with NCI-H226 lung; greater than 100 µM in the test on SN12C renal; 70.1 µM with MOLT-4 leukemia; 97.2 µM in the test on SNB-75 CNS; greater than 100 µM in the test with SF-295 CNS.

Take `CCn1nc(C#Cc2c(C)ccc3c(Nc4ccc(Cl)cc4)nccc23)c2c(N)ncnc21`: the GI50 was 4.38 µM in the test with SK-OV-3 ovarian; 3.1 µM with NCI/ADR-RES ovarian; 3.29 µM with NCI-H226 lung; 3.84 µM in the test on SN12C renal; 4.32 µM with MOLT-4 leukemia; 3.12 µM in the test with SNB-75 CNS. For the same molecule, the GI50 with SF-295 CNS was 2.48 µM; with A498 renal it was 2.54 µM; with HCT-116 colon, 2.11 µM. The TGI in the test with SK-OV-3 ovarian is greater than 100 µM; in the test on NCI/ADR-RES ovarian, 10.7 µM; in the test with NCI-H226 lung, 12.9 µM; with SN12C renal, greater than 100 µM; in the test with MOLT-4 leukemia it was greater than 100 µM; in the test on SNB-75 CNS, 44 µM. The TGI was 11.6 µM with SF-295 CNS, 8.65 µM in the test on A498 renal and greater than 100 µM in the test with HCT-116 colon.

`COC(=O)N1C=Cc2c(c(C)c3c([nH]c4ccccc43)c2C)C1C` (configuration not stated): the TGI in the test with SK-OV-3 ovarian is 57.3 µM; in the test on NCI-H226 lung, 35.7 µM; in the test on MOLT-4 leukemia it was 43.3 µM; with SNB-75 CNS, 47.8 µM; with SF-295 CNS, 28.6 µM; in the test with A498 renal, 28.8 µM. Further, the TGI with HCT-116 colon turned out to be 25.6 µM.

On to `Cc1nc2ccccc2c(=O)n1/N=C(\N=Nc1ccc(Cl)cc1)c1ccc(N(C)C)cc1`, for which the TGI in the test on SK-OV-3 ovarian, with SN12C renal, in the test on MOLT-4 leukemia, in the test on SF-295 CNS, in the test on A498 renal and with HCT-116 colon was greater than 100 µM in each case.

As for `O=c1ccn([C@@H]2C[C@H](CO)CS(=O)C2)c(=O)[nH]1` (some centres not stated), the TGI in the test with SK-OV-3 ovarian, in the test with NCI-H226 lung, with SN12C renal, in the test on MOLT-4 leukemia, in the test on SNB-75 CNS and in the test with SF-295 CNS was greater than 100 µM each time. Moreover, the TGI in the test with A498 renal and with HCT-116 colon was greater than 100 µM throughout.

Regarding `BrC(/C=N/Nc1nnc(-c2ccccc2)c(-c2ccccc2)n1)C(Br)c1ccccc1` (configuration not stated), the TGI in the test with SK-OV-3 ovarian was greater than 100 µM; in the test on NCI-H226 lung, 70.4 µM; in the test on SN12C renal it was greater than 100 µM; in the test with MOLT-4 leukemia, greater than 100 µM; in the test on SNB-75 CNS, 78.6 µM; in the test with SF-295 CNS, greater than 100 µM. This molecule also returned a TGI in the test on A498 renal greater than 100 µM.

On to `O=P(c1ccccc1)(c1ccccc1)C1CC=C2CCCCCC2C1` (configuration not stated), for which the TGI in the test with SK-OV-3 ovarian is 85.9 µM; in the test on NCI-H226 lung it was 81.1 µM; in the test with SN12C renal it was greater than 100 µM; with MOLT-4 leukemia, 45.3 µM; with SNB-75 CNS, 62.7 µM; in the test on SF-295 CNS, greater than 100 µM. For the same molecule, the figures for the TGI in the test on A498 renal and with HCT-116 colon were 97.7 µM and 40.3 µM, respectively.
